Assay results taken from patent US9518052B2, “Pyrazolopyridines and pyrazolopyrimidines” (Pfizer Inc., priority 2014, dated 2016).
Structures can show the parent of a compound that is named as a salt.

Key:
Type in all cases: biochemical
Details in all cases: Caliper assay at 1 mM ATP
TYK2 = TYK2 (Homo sapiens (Human), UniProt P29597); test: JAK Caliper Enzyme Assay at 1 mM ATP (TYK2)
Experimental: (§1) JAK Caliper Enzyme Assay at 1 mM ATP
(§2) Test article was solubilized in dimethyl sulfoxide (DMSO) to a stock concentration of 30 mM. An 11-point half log dilution series was created in DMSO with a top concentration of 600 μM. […] The compound plates were diluted 1 to 60 resulting in a top final assay compound concentration of 10 μM and a 2% DMSO concentration.
(§3) Test article and assay controls were added to a 384-well plate. Reaction mixtures contained 20 mM HEPES, pH 7.4, 10 mM magnesium chloride, 0.01% bovine serum albumin (BSA), 0.0005% Tween 20, 1 mM ATP and 1 μM peptide substrate. […] Enzyme concentrations and incubation times were optimized for each new enzyme preps and were modified slightly over time to ensure 20%-30% phosphorylation. The assays were stopped with a final concentration of 10 mM EDTA, 0.1% Coating Reagent and 100 mM HEPES, pH=7.4. The assay plates were placed on a Caliper Life Science Lab Chip 3000 (LC3000) instrument, and each well was sampled using appropriate separation conditions to measure the unphosphorylated and phosphorylated peptide.

JAK3 = JAK3 (Homo sapiens (Human), UniProt P52333); test: JAK Caliper Enzyme Assay at 1 mM ATP (JAK3)
Chain of JAK3 (P52333 whole entry, species assumed): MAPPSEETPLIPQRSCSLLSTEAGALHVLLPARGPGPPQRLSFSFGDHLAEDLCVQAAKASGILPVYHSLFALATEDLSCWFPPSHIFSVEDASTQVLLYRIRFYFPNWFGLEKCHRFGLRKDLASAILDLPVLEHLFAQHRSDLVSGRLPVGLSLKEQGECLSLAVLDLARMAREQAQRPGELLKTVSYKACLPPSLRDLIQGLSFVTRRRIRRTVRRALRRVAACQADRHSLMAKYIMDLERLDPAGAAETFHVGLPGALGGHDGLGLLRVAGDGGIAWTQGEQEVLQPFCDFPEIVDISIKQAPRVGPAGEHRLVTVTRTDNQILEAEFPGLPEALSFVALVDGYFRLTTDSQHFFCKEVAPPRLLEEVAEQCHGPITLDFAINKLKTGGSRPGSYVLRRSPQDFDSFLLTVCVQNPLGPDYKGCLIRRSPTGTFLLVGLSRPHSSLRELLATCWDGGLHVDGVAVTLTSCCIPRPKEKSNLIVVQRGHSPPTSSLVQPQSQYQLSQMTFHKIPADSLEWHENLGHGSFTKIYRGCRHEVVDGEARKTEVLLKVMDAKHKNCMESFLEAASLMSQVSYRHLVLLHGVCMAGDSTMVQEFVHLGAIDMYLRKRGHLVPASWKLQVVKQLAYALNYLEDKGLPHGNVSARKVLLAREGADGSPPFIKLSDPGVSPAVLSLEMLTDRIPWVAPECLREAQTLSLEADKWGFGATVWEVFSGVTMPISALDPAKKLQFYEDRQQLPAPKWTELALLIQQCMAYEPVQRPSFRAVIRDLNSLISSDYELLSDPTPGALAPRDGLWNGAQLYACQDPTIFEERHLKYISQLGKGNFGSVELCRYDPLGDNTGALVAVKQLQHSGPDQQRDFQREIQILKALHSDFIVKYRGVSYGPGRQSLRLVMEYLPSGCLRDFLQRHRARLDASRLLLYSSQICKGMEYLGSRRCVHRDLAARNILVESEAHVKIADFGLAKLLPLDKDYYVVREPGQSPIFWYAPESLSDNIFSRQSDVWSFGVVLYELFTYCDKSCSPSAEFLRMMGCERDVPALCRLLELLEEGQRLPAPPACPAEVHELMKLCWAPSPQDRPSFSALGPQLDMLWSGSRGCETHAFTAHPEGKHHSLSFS
Experimental: as §1, §2, §3

JAK2 = JAK2 (Homo sapiens (Human), UniProt O60674); test: JAK Caliper Enzyme Assay at 1 mM ATP (JAK2)
Chain of JAK2 (O60674 whole entry, species assumed): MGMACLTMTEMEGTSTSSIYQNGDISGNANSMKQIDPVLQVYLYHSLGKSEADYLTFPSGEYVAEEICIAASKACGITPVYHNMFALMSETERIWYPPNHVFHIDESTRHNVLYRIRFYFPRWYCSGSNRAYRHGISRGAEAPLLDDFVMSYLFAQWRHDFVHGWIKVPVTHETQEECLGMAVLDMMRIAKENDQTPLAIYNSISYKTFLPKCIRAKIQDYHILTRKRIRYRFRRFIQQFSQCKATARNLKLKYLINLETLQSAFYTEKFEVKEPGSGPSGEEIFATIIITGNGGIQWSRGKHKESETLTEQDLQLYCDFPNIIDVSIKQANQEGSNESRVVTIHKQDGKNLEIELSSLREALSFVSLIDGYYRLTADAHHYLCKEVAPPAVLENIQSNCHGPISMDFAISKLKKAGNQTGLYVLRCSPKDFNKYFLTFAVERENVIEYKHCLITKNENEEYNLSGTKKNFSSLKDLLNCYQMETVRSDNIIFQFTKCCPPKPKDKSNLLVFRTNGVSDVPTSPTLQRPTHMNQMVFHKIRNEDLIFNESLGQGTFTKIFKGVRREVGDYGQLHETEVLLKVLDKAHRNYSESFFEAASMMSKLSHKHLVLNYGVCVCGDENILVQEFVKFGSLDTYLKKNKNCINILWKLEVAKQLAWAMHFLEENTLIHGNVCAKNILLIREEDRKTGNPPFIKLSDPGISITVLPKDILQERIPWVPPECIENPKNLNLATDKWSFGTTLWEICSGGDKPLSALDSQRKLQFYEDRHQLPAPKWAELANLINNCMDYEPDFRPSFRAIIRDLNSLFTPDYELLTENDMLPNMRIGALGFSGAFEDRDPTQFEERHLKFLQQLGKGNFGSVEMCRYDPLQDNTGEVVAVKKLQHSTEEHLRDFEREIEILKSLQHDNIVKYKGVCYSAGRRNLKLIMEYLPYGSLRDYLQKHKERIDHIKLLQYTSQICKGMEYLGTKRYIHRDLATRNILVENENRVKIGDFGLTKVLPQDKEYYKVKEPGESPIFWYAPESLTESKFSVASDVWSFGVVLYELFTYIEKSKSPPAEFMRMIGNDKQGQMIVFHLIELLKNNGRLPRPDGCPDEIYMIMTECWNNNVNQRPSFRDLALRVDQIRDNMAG
Experimental: as §1, §2, §3

JAK1 = JAK1 (Homo sapiens (Human), UniProt P23458); test: JAK Caliper Enzyme Assay at 1 mM ATP (JAK1)
Chain of JAK1 (P23458 whole entry, species assumed): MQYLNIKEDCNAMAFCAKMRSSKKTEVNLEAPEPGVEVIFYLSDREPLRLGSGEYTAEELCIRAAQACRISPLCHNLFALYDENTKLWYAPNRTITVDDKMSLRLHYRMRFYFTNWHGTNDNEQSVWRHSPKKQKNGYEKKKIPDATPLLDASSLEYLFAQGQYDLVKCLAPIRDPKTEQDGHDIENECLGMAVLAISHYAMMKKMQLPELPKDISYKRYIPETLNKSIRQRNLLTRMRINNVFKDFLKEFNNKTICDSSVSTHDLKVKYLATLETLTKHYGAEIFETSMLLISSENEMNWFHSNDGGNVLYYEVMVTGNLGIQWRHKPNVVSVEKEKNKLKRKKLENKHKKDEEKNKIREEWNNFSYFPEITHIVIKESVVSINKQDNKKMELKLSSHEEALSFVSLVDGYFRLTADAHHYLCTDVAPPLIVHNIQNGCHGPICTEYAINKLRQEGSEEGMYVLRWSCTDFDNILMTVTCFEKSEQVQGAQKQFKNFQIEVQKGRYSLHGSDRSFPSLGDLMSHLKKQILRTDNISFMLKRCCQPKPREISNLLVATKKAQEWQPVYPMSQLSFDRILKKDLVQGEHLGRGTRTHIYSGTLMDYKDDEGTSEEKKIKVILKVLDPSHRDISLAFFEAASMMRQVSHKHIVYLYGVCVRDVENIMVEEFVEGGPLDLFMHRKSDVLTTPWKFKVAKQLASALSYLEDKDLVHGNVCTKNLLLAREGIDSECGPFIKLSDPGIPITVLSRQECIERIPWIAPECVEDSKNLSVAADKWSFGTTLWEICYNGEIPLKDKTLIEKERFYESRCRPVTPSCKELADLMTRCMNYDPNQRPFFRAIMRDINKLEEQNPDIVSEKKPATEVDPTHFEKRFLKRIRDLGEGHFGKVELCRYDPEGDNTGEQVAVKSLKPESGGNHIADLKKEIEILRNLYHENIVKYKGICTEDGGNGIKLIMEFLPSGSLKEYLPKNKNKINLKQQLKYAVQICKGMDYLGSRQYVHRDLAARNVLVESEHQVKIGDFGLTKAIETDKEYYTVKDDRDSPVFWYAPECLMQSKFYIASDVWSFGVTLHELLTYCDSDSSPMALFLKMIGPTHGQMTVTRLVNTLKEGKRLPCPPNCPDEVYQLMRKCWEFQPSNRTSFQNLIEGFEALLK
Experimental: as §1, §2, §3

Chain of TYK2 (P29597 whole entry, species assumed): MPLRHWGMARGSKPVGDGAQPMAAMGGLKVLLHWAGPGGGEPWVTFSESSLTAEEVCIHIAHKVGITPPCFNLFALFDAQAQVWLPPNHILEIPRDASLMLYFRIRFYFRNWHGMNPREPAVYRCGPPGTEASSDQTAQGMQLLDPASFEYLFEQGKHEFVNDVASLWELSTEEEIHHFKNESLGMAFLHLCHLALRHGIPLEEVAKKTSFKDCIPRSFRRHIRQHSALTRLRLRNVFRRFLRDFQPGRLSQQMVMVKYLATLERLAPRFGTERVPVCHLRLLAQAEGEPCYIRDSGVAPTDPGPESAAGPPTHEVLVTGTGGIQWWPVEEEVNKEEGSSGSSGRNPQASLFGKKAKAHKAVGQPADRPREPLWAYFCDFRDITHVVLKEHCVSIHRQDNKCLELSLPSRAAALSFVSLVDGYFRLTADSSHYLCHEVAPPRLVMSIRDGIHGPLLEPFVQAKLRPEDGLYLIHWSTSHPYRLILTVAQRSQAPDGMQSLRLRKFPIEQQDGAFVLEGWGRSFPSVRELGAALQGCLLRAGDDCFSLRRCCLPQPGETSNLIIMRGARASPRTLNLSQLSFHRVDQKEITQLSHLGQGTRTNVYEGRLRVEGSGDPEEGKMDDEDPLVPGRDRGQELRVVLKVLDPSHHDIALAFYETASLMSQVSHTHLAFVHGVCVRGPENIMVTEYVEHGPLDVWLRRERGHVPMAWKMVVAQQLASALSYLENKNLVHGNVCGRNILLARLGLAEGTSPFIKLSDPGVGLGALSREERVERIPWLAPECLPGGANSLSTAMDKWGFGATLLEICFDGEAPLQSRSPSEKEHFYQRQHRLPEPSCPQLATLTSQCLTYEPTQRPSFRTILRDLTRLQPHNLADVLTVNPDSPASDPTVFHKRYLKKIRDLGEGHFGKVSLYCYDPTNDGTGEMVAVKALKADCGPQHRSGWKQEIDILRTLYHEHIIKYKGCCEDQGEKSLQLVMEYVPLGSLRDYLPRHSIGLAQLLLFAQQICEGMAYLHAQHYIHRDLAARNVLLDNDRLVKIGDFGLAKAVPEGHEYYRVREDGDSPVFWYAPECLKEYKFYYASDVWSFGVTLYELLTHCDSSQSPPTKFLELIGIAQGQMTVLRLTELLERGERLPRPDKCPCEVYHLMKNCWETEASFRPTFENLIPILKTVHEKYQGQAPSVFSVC

IC50 (TYK2) | IC50 (JAK3) | IC50 (JAK2) | IC50 (JAK1) | SMILES
12.1 nM | 84.5 nM | 17 nM | 3.4 nM | CCc1cc(O)c(F)cc1-c1cc2[nH]nc(C(=O)NC)c2c(NCc2ccccc2N(CC)S(=O)(=O)CC)n1 [Example 2, 4-({2-[ethyl(ethylsulfonyl)-amino]benzyl}amino)-6-(2-ethyl-5-fluoro-4-hydroxyphenyl)-N-methyl-1H-pyrazolo[4,3-c]pyridine-3-carboxamide]
49.4 nM | 18.5 nM | 4.7 nM | 1.1 nM | CCc1cc(O)c(F)cc1-c1cc2[nH]ncc2c(NCc2ccccc2N(CCO)S(C)(=O)=O)n1 [Example 147, N-[2-({[6-(2-Ethyl-5-fluoro-4-hydroxyphenyl)-1H-pyrazolo[4,3-c]pyridin-4-yl]amino}methyl)phenyl]-N-(2-hydroxyethyl)methanesulfonamide]
33.9 nM | 80.9 nM | 18.8 nM | 5.4 nM | CCc1cc(O)c(F)cc1-c1cc2[nH]nc(C(=O)NC)c2c(NCc2ccccc2N(C)S(N)(=O)=O)n1 [Example 73, 6-(2-ethyl-5-fluoro-4-hydroxyphenyl)-N-methyl-4-({2-[methyl(sulfamoyl)-amino]benzyl}amino)-1H-pyrazolo[4,3-c]pyridine-3-carboxamide]
320 nM | 54.3 nM | 28.4 nM | 10.6 nM | CN(c1ccccc1CNc1nc(-c2cc(F)c(O)cc2C2CC2)cc2[nH]nc(C(N)=O)c12)S(C)(=O)=O [Example 47, 6-(2-cyclopropyl-5-fluoro-4-hydroxyphenyl)-4-({2-[methyl(methylsulfonyl)amino]benzyl}amino)-1H-pyrazolo[4,3-c]pyridine-3-carboxamide]
49.9 nM | 19.1 nM | 5.1 nM | 0.9 nM | CCc1cc(O)c(F)cc1-c1cc2[nH]ncc2c(N(C)Cc2ccccc2N(C)S(C)(=O)=O)n1 [Example 146, N-[2-({[6-(2-Ethyl-5-fluoro-4-hydroxyphenyl)-1H-pyrazolo[4,3-c]pyridin-4-yl](methyl)amino}methyl)phenyl]-N-methylmethanesulfonamide hydrochloride]
36.5 nM | 177 nM | 38.1 nM | 8 nM | CCN(c1ccccc1CNc1nc(-c2cc(F)c(O)cc2CC(F)(F)F)cc2[nH]nc(C(=O)NC)c12)S(=O)(=O)CC [Example 1, 4-({2-[Ethyl(ethylsulfonyl)amino]benzyl}amino)-6-[5-fluoro-4-hydroxy-2-(2,2,2-trifluoroethyl)phenyl]-N-methyl-1H-pyrazolo[4,3-c]pyridine-3-carboxamide]
8.7 nM | 22.4 nM | 4.3 nM | 0.8 nM | CCc1cc(O)c(F)cc1-c1cc2[nH]ncc2c(NCc2ccccc2N(CC)S(=O)(=O)CC)n1 [Example 136, N-ethyl-N-[2-({[6-(2-ethyl-5-fluoro-4-hydroxyphenyl)-1H-pyrazolo[4,3-c]pyridin-4-yl]amino}methyl)phenyl]ethanesulfonamide hydrochloride]

Continued, molecule first:

SMILES | IC50 (TYK2) | IC50 (JAK3) | IC50 (JAK2) | IC50 (JAK1)
CNC(=O)c1n[nH]c2nc(-c3cc(F)c(O)cc3CC(F)(F)F)nc(NCc3ccccc3N(C)S(=O)(=O)NC)c12 [Example 110, 6-(5-Fluoro-4-hydroxy-2-(2,2,2-trifluoroethyl)phenyl)-N-methyl-4-((2-(methyl(N-methylsulfamoyl)amino)benzyl)amino)-1H-pyrazolo[3,4-d]pyrimidine-3-carboxamide] | 35 nM | 120 nM | 26.9 nM | 5.4 nM
CN(c1ccc(O)cc1CNc1nc(-c2cc(F)c(O)cc2CC(F)(F)F)cc2[nH]nc(C(N)=O)c12)S(C)(=O)=O [Example 92, 6-[5-Fluoro-4-hydroxy-2-(2,2,2-trifluoroethyl)phenyl]-4-({5-hydroxy-2-[methyl(methylsulfonyl)amino]benzyl}amino)-1H-pyrazolo[4,3-c]pyridine-3-carboxamide] | 14.5 nM | 45.7 nM | 13.5 nM | 2.1 nM
CCN(c1ncc(C)cc1CNc1nc(-c2cc(F)c(O)cc2CC(F)(F)F)cc2[nH]nc(C(N)=O)c12)S(C)(=O)=O [Example 87, 4-[({2-[ethyl(methylsulfonyl)amino]-5-methylpyridin-3-yl}methyl)amino]-6-[5-fluoro-4-hydroxy-2-(2,2,2-trifluoroethyl)phenyl]-1H-pyrazolo[4,3-c]pyridine-3-carboxamide] | 2490 nM | 133 nM | 87.8 nM | 30.6 nM
CN(c1ccc(Cl)cc1CNc1nc(-c2cc(F)c(O)cc2CC(F)(F)F)cc2[nH]nc(C(N)=O)c12)S(C)(=O)=O [Example 89, 4-({5-chloro-2-[methyl(methylsulfonyl)amino]benzyl}amino)-6-[5-fluoro-4-hydroxy-2-(2,2,2-trifluoroethyl)phenyl]-1H-pyrazolo[4,3-c]pyridine-3-carboxamide] | 917 nM | 212 nM | 57.1 nM | 14.6 nM
CCc1cc(O)c(F)cc1-c1nc(NCc2ccccc2N(C)S(=O)(=O)c2ccccc2)c2c(C(N)=O)n[nH]c2n1 [Example 95, 6-(2-Ethyl-5-fluoro-4-hydroxyphenyl)-4-((2-(N-methylphenylsulfonamido)benzyl)amino)-1H-pyrazolo[3,4-d]pyrimidine-3-carboxamide] | 89.3 nM | 82.4 nM | 27 nM | 6.7 nM
CN(c1ncc(Cl)cc1CNc1nc(-c2cc(F)c(O)cc2CC(F)(F)F)cc2[nH]nc(C(N)=O)c12)S(C)(=O)=O [Example 72, 4-[({5-chloro-2-[methyl(methylsulfonyl)amino]pyridin-3-yl}methyl)amino]-6-[5-fluoro-4-hydroxy-2-(2,2,2-trifluoroethyl)phenyl]-1H-pyrazolo[4,3-c]pyridine-3-carboxamide] | 3450 nM | 198 nM | 135 nM | 44.8 nM
CCc1cc(O)ccc1-c1cc2[nH]ncc2c(N2CC(C)(O)C2)n1 [Example 115, 1-[6-(2-ethyl-4-hydroxyphenyl)-1H-pyrazolo[4,3-c]pyridin-4-yl]-3-methylazetidin-3-ol formate] | 229 nM | 16.8 nM | 10.1 nM | 4.3 nM
CCc1cc(O)c(F)cc1-c1cc2[nH]nc(C(=O)NC)c2c(N[C@@H](C)c2ccccc2N(C)S(C)(=O)=O)n1 [Example 39, 6-(2-Ethyl-5-fluoro-4-hydroxyphenyl)-N-methyl-4-{[(1S)-1-{2-[methyl(methylsulfonyl)amino]phenyl}ethyl]amino}-1H-pyrazolo[4,3-c]pyridine-3-carboxamide] | 320 nM | 278 nM | 48.2 nM | 32.3 nM
CC(C)CNc1nc(-c2cc(F)c(O)cc2CC(F)(F)F)nc2[nH]ncc12 [Example 153, 2-fluoro-4-{4-[(2-methyl-propyl)amino]-1H-pyrazolo[3,4-d]pyrimidin-6-yl}-5-(2,2,2-trifluoroethyl)phenol] | 7460 nM | 207 nM | 241 nM | 74 nM
CCN(c1ncccc1CNc1nc(-c2cc(F)c(O)cc2CC(F)(F)F)cc2[nH]nc(C(N)=O)c12)S(C)(=O)=O [Example 52, 4-[({2-[ethyl(methyl-sulfonyl)-amino]pyridin-3-yl}methyl)amino]-6-[5-fluoro-4-hydroxy-2-(2,2,2-trifluoroethyl)phenyl]-1H-pyrazolo[4,3-c]pyridine-3-carboxamide] | 109 nM | 46.3 nM | 15 nM | 2.9 nM
